Reference: the NIST ThermoML archive (doi:10.1021/je201310d)
± gives the expanded uncertainty stated by the source.

Experiment: activity coefficient (dimensionless); of the first substance listed, at infinite dilution; xn = mol fraction of the nth substance listed
Conditions: 101 kPa, Liquid, Chromatography, x1 = 0

SMILES	activity coefficient (313.15 K)	activity coefficient (323.15 K)	activity coefficient (333.15 K)	activity coefficient (343.15 K)	activity coefficient (353.15 K)	activity coefficient (363.15 K)
CCCCCCCC [octane] + CCCCOP(=O)([O-])OCCCC.CCCCn1cc[n+](C)c1	6.54 ± 0.39	6.43 ± 0.38	6.36 ± 0.38	6.28 ± 0.37	6.21 ± 0.37	6.15 ± 0.37
CCCCC [pentane] + CCCCOP(=O)([O-])OCCCC.CCCCn1cc[n+](C)c1	4.12 ± 0.25	4.05 ± 0.24	3.93 ± 0.23	3.86 ± 0.23	3.79 ± 0.23	3.72 ± 0.22
CC(C)CC(C)(C)C [2,2,4-trimethylpentane] + CCCCOP(=O)([O-])OCCCC.CCCCn1cc[n+](C)c1	6.2 ± 0.37	6.12 ± 0.36	6.06 ± 0.36	6.01 ± 0.36	5.94 ± 0.35	5.88 ± 0.35
CCCCCCCCCC [decane] + CCCCOP(=O)([O-])OCCCC.CCCCn1cc[n+](C)c1	10 ± 0.6	9.65 ± 0.58	9.16 ± 0.55	8.78 ± 0.52	8.54 ± 0.51	8.25 ± 0.49
CCCCCC [hexane] + CCCCOP(=O)([O-])OCCCC.CCCCn1cc[n+](C)c1	4.73 ± 0.28	4.63 ± 0.28	4.51 ± 0.27	4.45 ± 0.26	4.32 ± 0.26	4.24 ± 0.25
C=Cc1ccccc1 [styrene] + CCCCOP(=O)([O-])OCCCC.CCCCn1cc[n+](C)c1	1.19 ± 0.07	1.15 ± 0.06	1.09 ± 0.06	1.07 ± 0.06	1.03 ± 0.06	0.98 ± 0.05
C1=CCCCC1 [cyclohexene] + CCCCOP(=O)([O-])OCCCC.CCCCn1cc[n+](C)c1	2.2 ± 0.13	2.15 ± 0.13	2.11 ± 0.13	2.05 ± 0.12	2.02 ± 0.12	1.96 ± 0.12
C1CCCCC1 [cyclohexane] + CCCCOP(=O)([O-])OCCCC.CCCCn1cc[n+](C)c1	3.09 ± 0.18	2.99 ± 0.18	2.84 ± 0.17	2.76 ± 0.16	2.68 ± 0.16	2.59 ± 0.15
c1ccccc1 [benzene] + CCCCOP(=O)([O-])OCCCC.CCCCn1cc[n+](C)c1	1.03 ± 0.06	0.97 ± 0.05	0.93 ± 0.05	0.9 ± 0.05	0.88 ± 0.05	0.85 ± 0.05
CC1CCCCC1 [methylcyclohexane] + CCCCOP(=O)([O-])OCCCC.CCCCn1cc[n+](C)c1	3.7 ± 0.22	3.61 ± 0.21	3.54 ± 0.21	3.48 ± 0.21	3.41 ± 0.2	3.35 ± 0.2
Cc1ccccc1 [toluene] + CCCCOP(=O)([O-])OCCCC.CCCCn1cc[n+](C)c1	1.39 ± 0.08	1.35 ± 0.08	1.32 ± 0.07	1.3 ± 0.07	1.29 ± 0.07	1.27 ± 0.07
CCCCCCC [heptane] + CCCCOP(=O)([O-])OCCCC.CCCCn1cc[n+](C)c1	5.5 ± 0.33	5.38 ± 0.32	5.29 ± 0.31	5.21 ± 0.31	5.12 ± 0.3	5.05 ± 0.3
Cc1ccccc1C [1,2-dimethylbenzene] + CCCCOP(=O)([O-])OCCCC.CCCCn1cc[n+](C)c1	1.8 ± 0.11	1.77 ± 0.1	1.73 ± 0.1	1.71 ± 0.1	1.68 ± 0.1	1.65 ± 0.1
Cc1cccc(C)c1 [1,3-dimethylbenzene] + CCCCOP(=O)([O-])OCCCC.CCCCn1cc[n+](C)c1	1.99 ± 0.12	1.95 ± 0.12	1.92 ± 0.11	1.88 ± 0.11	1.85 ± 0.11	1.83 ± 0.11
CCCCCCCCC [nonane] + CCCCOP(=O)([O-])OCCCC.CCCCn1cc[n+](C)c1	7.69 ± 0.46	7.47 ± 0.45	7.31 ± 0.44	7.13 ± 0.42	7.02 ± 0.42	6.88 ± 0.41
Cc1ccc(C)cc1 [1,4-dimethylbenzene] + CCCCOP(=O)([O-])OCCCC.CCCCn1cc[n+](C)c1	1.91 ± 0.11	1.86 ± 0.11	1.82 ± 0.11	1.78 ± 0.1	1.75 ± 0.1	1.72 ± 0.1
